Laboratory results reported in ChEMBL document CHEMBL5604063, “ASAP - DENV-2 NS2B-NS3 protease fluorescence dose response” (2024).
Values joined by “and” are separate entries in the source; they are usually repeats but may differ in a detail not shown here. Identical values can stand only once. Peptide text beside a SMILES is read from it. * marks the point of attachment. pNA = O=[N+]([O-])c1ccc(N*)cc1; Boc = CC(C)(C)OC(=O)*

biological target: T1, Genome polyprotein (dengue virus type 2, UniProt P29990); assay type: functional, Thailand/16681/1984
T1 sequence (P29990 1346-1475 limits assumed): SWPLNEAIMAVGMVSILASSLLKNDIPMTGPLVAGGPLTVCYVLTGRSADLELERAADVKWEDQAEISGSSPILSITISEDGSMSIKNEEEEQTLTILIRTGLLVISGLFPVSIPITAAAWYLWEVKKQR
T1 sequence (P29990 1476-2093 limits assumed): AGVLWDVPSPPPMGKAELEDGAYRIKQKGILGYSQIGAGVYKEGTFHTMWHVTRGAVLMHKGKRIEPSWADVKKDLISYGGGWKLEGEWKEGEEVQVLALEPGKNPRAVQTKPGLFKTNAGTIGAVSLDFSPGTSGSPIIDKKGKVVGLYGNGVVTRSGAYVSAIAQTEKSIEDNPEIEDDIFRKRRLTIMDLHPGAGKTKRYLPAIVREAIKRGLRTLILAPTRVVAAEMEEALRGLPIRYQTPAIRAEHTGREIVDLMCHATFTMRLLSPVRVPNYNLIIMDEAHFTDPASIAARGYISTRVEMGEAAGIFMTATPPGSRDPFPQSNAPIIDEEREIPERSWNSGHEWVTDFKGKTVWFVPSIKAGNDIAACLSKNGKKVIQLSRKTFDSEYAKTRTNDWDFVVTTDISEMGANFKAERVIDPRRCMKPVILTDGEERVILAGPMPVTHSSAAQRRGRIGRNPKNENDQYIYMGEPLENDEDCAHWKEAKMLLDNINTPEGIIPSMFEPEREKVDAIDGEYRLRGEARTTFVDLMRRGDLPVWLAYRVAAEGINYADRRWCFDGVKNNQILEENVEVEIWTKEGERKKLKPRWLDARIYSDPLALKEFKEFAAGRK

SMILES	IC50
N=C(N)NCCC[C@H](NC(=O)[C@H](Cc1ccc(CN)cc1)NC(=O)c1ccccc1)B(O)O	720 nM and 583 nM and 818 nM and 732 nM and 585 nM and < 2.49 µM (9×) and 276 nM and 270 nM and 274 nM and 310 nM and 236 nM and 572 nM and 397 nM and 474 nM and 507 nM and 265 nM
O=C(Nc1cc(Cl)cc(C(=O)Nc2ccc3c(c2)CNC3)c1)OCc1ccccc1	> 99.5 µM
C=CC[C@H](Nc1cc([C@H]2CCOC2)ccn1)c1cc(C2CC2)n(C)n1	> 99.5 µM
NCc1cccc([C@@H]2C[C@H]2c2cc(Cl)cc(NC(=O)OCc3ccccc3)c2)c1	30.3 µM and 50.1 µM
O=C(Nc1ccc2c(c1)CNC2)c1cc(F)cc(C=C2CCS(=O)(=O)CC2)c1	> 99.5 µM
Cc1c(C(=O)Nc2ccc3c(c2)C(=O)N(C)C3)cc(C2CC2)n1C	> 99.5 µM
Cc1cc(NC(=O)c2cc(C3CC3)n(C)c2C)ccc1N1CCCC1=O	> 99.5 µM
Cc1c(C(=O)Nc2ccc3c(c2)CCCC(=O)N3)cc(C2CC2)n1C	> 99.5 µM
O=C(Nc1ccc2c(c1)CNC2)c1cc(F)cc(C2=CCCOC2)c1	> 99.5 µM
NCc1cccc(NC(=O)[C@@H](NC(=O)OCc2ccccc2)c2ccc(OCc3ccccc3)cc2)c1	14.2 µM
Cc1c(C(=O)Nc2cccc(-c3ccc(=O)[nH]n3)c2)cc(C2CC2)n1C	> 99.5 µM
NCc1cccc(NC(=O)C[C@H](NC(=O)OCc2ccccc2)c2ccc(OCc3ccccc3)c(Br)c2)c1	< 2.49 µM and 1.85 µM and 1.92 µM and 1.84 µM and 2.53 µM and 2.67 µM and 2.65 µM
COC(=O)[C@H](C)n1cc2c(C(=O)Nc3ccc4c(c3)CNC4)cc(Cl)cc2n1	> 99.5 µM
C=CC[C@H]1NCc2cc(NC(=O)c3ccc4c(c3)CC(=O)N4)ccc21	> 99.5 µM
CC(C)c1nn(C)cc1-c1cc(F)cc(C(=O)Nc2ccc3c(c2)CNC3)c1	> 99.5 µM
Brc1cc(CNc2ccc3c(c2)CNC3)c2cc[nH]c2c1	> 99.5 µM
COc1cc(C(=O)Nc2ccc3c(c2)CNC3)cc2ccoc12	> 99.5 µM
O=C(O)c1cc(Cl)c(F)cc1NS(=O)(=O)c1ccc(Oc2ccccc2Cl)cc1	7.82 µM
NCc1cccc(NC(=O)[C@H](NC(=O)OCc2ccccc2)C2CCN(Cc3ccccc3)CC2)c1	> 99.5 µM
Cc1cccc(-c2nc3c(C(=O)Nc4ccc5c(c4)CNC5)cc(F)cc3[nH]2)c1	8.87 µM and 6.46 µM
Cc1ccccc1-c1nc2c(C(=O)Nc3ccc4c(c3)CNC4)cc(F)cc2[nH]1	3.46 µM and 3.38 µM
CC(C)CNC(=O)c1cc(Cl)c(F)cc1NS(=O)(=O)c1ccc(Oc2ccccc2Cl)cc1	6.13 µM
O=C(Nc1cc(-c2cccnc2)ccn1)c1nc(Br)n2c1CNCC2	> 99.5 µM
O=C(Nc1ccc2c(c1)CNC2)c1cc(F)cc2[nH]c(-c3cnccc3O)nc12	69.7 µM
O=C(Nc1ccc2c(c1)CNC2)c1cc(Cl)cc2c1cnn2C[C@H]1CCCO1	> 99.5 µM

SMILES	IC50
C[C@]1(O)C(=O)Nc2cc(F)cc(C(=O)Nc3ccc4c(c3)CNC4)c21	> 99.5 µM
O=C1Cc2c(cc(F)cc2C(=O)Nc2cc([C@H]3CCOC3)ccn2)N1	> 99.5 µM
Cc1c(C(=O)Nc2ccc3c(c2)CS(=O)(=O)C3)cc(C2CC2)n1C	> 99.5 µM
NCc1cccc(NC(=O)c2cc(Cl)cc(NC(=O)OCc3ccccc3)c2)c1	78.2 µM and 61.5 µM
O=C(Nc1cc(-c2cccnc2)ccn1)c1cc2n(c1)CCC2	> 99.5 µM
CCc1cc(C(=O)Nc2ccc3c(c2)CNC3)cc2cn[nH]c12	> 99.5 µM
Cc1c(C(=O)Nc2cc(-c3cccnc3)ccn2)c2ccccc2n1C	> 99.5 µM
O=C(Nc1ccc2c(c1)CNC2)c1cc(F)c2[nH]nnc2c1	> 99.5 µM
Cc1cc(-c2ccc([C@@H](NC(=O)OCc3ccccc3)C(=O)Nc3cccc(CN)c3)cc2)cs1	4.01 µM
Cc1c(C(=O)Nc2cccc(-c3cncnc3O)c2)cc(C2CC2)n1C	> 99.5 µM
C#Cc1cc(NC(=O)OCc2ccccc2)cc(C(=O)Nc2cccc(CN)c2)c1	81.7 µM
COCCNC(=O)[C@H](Nc1cccc([C@H]2CCOC2)c1)c1cc(Br)cc2[nH]ccc12	> 99.5 µM
O=C(Nc1ccc2c(c1)CNC2)c1cc(F)c2[nH]c(=O)[nH]c2c1	> 99.5 µM
O=C1C[C@H]2CN(C(=O)Nc3ccc4c(c3)CNC4)CC[C@H]2N1	> 99.5 µM
O=C(NCC(F)F)[C@H](Nc1ccc2c(n1)CNC2)c1cc(Cl)cc(C2CC2)c1	> 296 µM
NCc1cccc(NC(=O)c2cc(Cl)ccc2NS(=O)(=O)c2ccccc2)c1	> 99.5 µM
Cc1cc(NC(=O)c2cc(C3CC3)n(C)c2C)cnc1N1CCCCC1	> 99.5 µM
Clc1ccc2[nH]ncc2c1[C@@H]1C[C@H]1c1ccc2c(c1)CNC2	> 99.5 µM
Cc1cc(C(=O)Nc2cc(-c3cccnc3)ccn2)nn1CCN	> 99.5 µM
COc1ccc(S(=O)(=O)n2nc(OC(=O)c3ccccc3)cc2N)cc1	3.47 µM
CSCC[C@H](NC(=O)OC(C)(C)C)C(=O)N1CCC[C@H]1C(=O)Nc1ccc([N+](=O)[O-])cc1 (Boc-Met-Pro-pNA)	> 99.5 µM
CSCC[C@H](N)C(=O)N1CCC[C@H]1C(=O)Nc1ccc([N+](=O)[O-])cc1 (H-Met-Pro-pNA)	> 99.5 µM
O=C(Nc1ccccc1)OCc1ccccc1 [BENZYL PHENYLCARBAMATE]	> 99.5 µM
O=C(Nc1ccccc1)Oc1ccccc1 [PHENYL PHENYLCARBAMATE]	> 59.8 µM

biological target: T1, Genome polyprotein; assay type: functional, Thailand/16681/1984; remark: another data set of the same source

SMILES	IC50
N=C(N)NCCC[C@H](NC(=O)c1nccs1)C(=O)N[C@@H](CCCCN)C(=O)N[C@@H](C(N)=O)c1ccc(OCc2ccc(C(F)(F)F)cc2)cc1	1.46 µM and 1.87 µM and 1.17 µM and 2.77 µM and 3.21 µM and 2.73 µM and 3 µM and 2.69 µM and 2.58 µM and 2.57 µM (2×) and 2.84 µM (2×) and 3.15 µM and 3.2 µM and 2.52 µM (2×) and 2.33 µM and 2.17 µM and 2.34 µM and 2.39 µM and 2.31 µM and 2.49 µM and 2.93 µM and 2.95 µM and 2.64 µM and 3.09 µM and 2.26 µM and 2.59 µM and 2.92 µM and 2.68 µM and 2.2 µM and 2.3 µM and 2.12 µM and 1.71 µM and 1.91 µM and 1.72 µM and 2.55 µM and 2.1 µM
N=C(N)NCCC[C@H](NC(=O)[C@H](Cc1ccc(CN)cc1)NC(=O)c1ccccc1)B(O)O	305 nM and 257 nM and 222 nM and 304 nM and 397 nM and 347 nM and 311 nM and 370 nM and 386 nM and 288 nM and 401 nM (2×) and 387 nM and 378 nM and 379 nM and 356 nM and 445 nM and 309 nM and 358 nM (2×) and 321 nM and 398 nM and 512 nM and 367 nM and 298 nM and 273 nM and 243 nM and 437 nM and 458 nM and 503 nM and 302 nM and 267 nM and 516 nM and 409 nM and 384 nM and 328 nM and 540 nM and 421 nM
Nc1cc(Cl)cc(C(=O)Nc2ccc3c(c2)CNC3)c1N	> 100 µM
Cc1c(C(=O)Nc2cccc(-c3nnn[nH]3)c2)sc2ccccc12	75.2 µM
Cc1ccncc1-c1cc(CN)cc([C@@H]2C[C@H]2c2cc(Cl)cc(NC(=O)OCc3ccccc3)c2)c1	> 100 µM
O=C(Nc1cc(Cl)cc(C(=O)Nc2ccc3c(c2)CNC3)c1)OCc1ccccc1	> 100 µM
O=C(Nc1ccc2c(c1)CNC2)c1cc(Br)cc2[nH]c(Cc3ccccc3)nc12	> 100 µM and 53.9 µM
O=C(O)c1cc(Cc2c[nH]c3ccc(Cl)cc23)cc(C2CC2)n1	> 100 µM
N#C[C@H](Nc1ccc2c(c1)CNC2)c1n[nH]c2cc(C(F)(F)F)ccc12	> 100 µM
N[C@H]1CCc2cc(NC(=O)c3cc(Cl)cc4[nH]ncc34)ccc21	59.2 µM
CC(C)c1nc2c(C(=O)Nc3ccc4c(c3)CNC4)cc(Br)cc2[nH]1	> 100 µM
N#Cc1cccc(-c2nc3c(C(=O)Nc4cccnc4)cc(Cl)cc3[nH]2)c1	> 100 µM
N#Cc1cccc(-c2nc3c(C(=O)Nc4ccncc4)cc(Cl)cc3[nH]2)c1	> 100 µM
N#Cc1cccc(-c2nc3c(C(=O)Nc4ccccc4)cc(Cl)cc3[nH]2)c1	> 100 µM
N#Cc1cccc(-c2nc3c(C(=O)NCc4ccccc4)cc(Cl)cc3[nH]2)c1	> 100 µM
Cc1c(C(=O)Nc2cc(C(=O)N3CCn4nccc43)ccn2)cc(C2CC2)n1C	> 100 µM
NCc1cccc([C@@H]2C[C@H]2c2cc(Cl)cc(NC(=O)OCc3ccccc3)c2)c1	> 100 µM
CC(C)CNC(=O)c1cc(Cl)cc2[nH]c(-c3cccc(C#N)c3)nc12	> 100 µM
NCc1cccc(NC(=O)[C@@H](NC(=O)OCc2ccccc2)c2ccc(OCc3ccccc3)cc2)c1	31 µM and 29.9 µM and 41.3 µM and 32.5 µM and 27.7 µM and 33.1 µM and 29.8 µM and 19 µM and 28.8 µM
NCc1cccc(NC(=O)C[C@H](NC(=O)OCc2ccccc2)c2ccc(OCc3ccccc3)c(Br)c2)c1	8.8 µM and 6.74 µM and 4.06 µM and 4.11 µM and 9.99 µM and 4.61 µM and 3.66 µM
O=C(Nc1cc(Cl)cc(C(=O)Nc2ncc(C3CNC3)s2)c1)OCc1ccccc1	> 100 µM

SMILES	IC50
COc1ccccc1-c1nc2c(C(=O)Nc3ccc4c(c3)CNC4)cc(F)cc2[nH]1	> 100 µM
O=C(O)c1cc(Cl)c(F)cc1NS(=O)(=O)c1ccc(Oc2ccccc2Cl)cc1	11.2 µM and 8.35 µM and 16.5 µM and 10.2 µM and 9.1 µM and 8.36 µM and 12.3 µM and 5.27 µM and 5.73 µM
CC[C@H](CO)NC(=O)Cn1ccnc(N2CC[C@H](CO)C2)c1=O	> 100 µM
NCc1cccc(NC(=O)c2cccc(CN)c2)c1	> 100 µM
NCc1cccc(NC(=O)[C@H](NC(=O)OCc2ccccc2)C2CCN(Cc3ccccc3)CC2)c1	> 100 µM
CO[C@H](C)Cn1cc2c(C(=O)Nc3ccc4c(c3)CNC4)cc(Cl)cc2n1	> 100 µM
CC(C)CNC(=O)c1cc(Cl)c(F)cc1NS(=O)(=O)c1ccc(Oc2ccccc2Cl)cc1	14.5 µM and 12.6 µM and 12.2 µM and 23.3 µM and 8.64 µM
N#Cc1cccc(-c2nc3c(C(=O)NCc4ccccn4)cc(Cl)cc3[nH]2)c1	> 100 µM
N#Cc1cccc(-c2nc3c(C(=O)NCc4cccnc4)cc(Cl)cc3[nH]2)c1	> 100 µM
NCc1csc2cc(C(=O)Nc3ccc4c(c3)CNC4)ccc12	83.1 µM and > 100 µM
O=C(Nc1cc(Cl)cc(-c2cc3cc(C(=O)O)ncn3c2)c1)OCc1ccccc1	50.1 µM
NCc1cccc(NC(=O)c2cc(Cl)cc(NC(=O)OCc3ccccc3)c2)c1	> 100 µM
Cc1cc(-c2ccc([C@@H](NC(=O)OCc3ccccc3)C(=O)Nc3cccc(CN)c3)cc2)cs1	30.5 µM and 16.5 µM and 28.3 µM and 18.6 µM and 11.2 µM and 15.5 µM
NCc1cc(Cl)cc(C(=O)Nc2cccc(-c3nn[nH]n3)c2)c1	> 100 µM
C#Cc1cc(NC(=O)OCc2ccccc2)cc(C(=O)Nc2cccc(CN)c2)c1	> 100 µM
O=C(NCc1cccnc1)[C@H](Nc1ccc2c(c1)CNC2)c1cc(Cl)cc2[nH]ncc12	> 100 µM
N[C@H]1CCN(c2ccc(NS(=O)(=O)c3ccc(Oc4ccccc4Cl)cc3)cc2)C1	> 100 µM
NCc1cccc(NC(=O)c2cc(Cl)ccc2NS(=O)(=O)c2ccccc2)c1	> 100 µM
O=C(Nc1ccc2c(c1)CNC2)c1cc(Cl)cc2c1NCCC2	> 100 µM
COc1ccc(S(=O)(=O)n2nc(OC(=O)c3ccccc3)cc2N)cc1	2.53 µM and 2.17 µM and 3.95 µM and 3.07 µM (2×) and 2.23 µM and 3.29 µM and 3.81 µM and 2.28 µM
